Assay [1] deals with alpha-glucosidase enzyme. Description: Enzyme kinetic study (Lineweaver-Burk plot, secondary plot). It is filed as biochemical, Saccharomyces cerevisieae. The protocol:
To determine the mode of inhibition, the enzyme kinetic procedure was performed as described by Sakulkeo et al.. The double reciprocal Lineweaver–Burk plot was constructed and used for the mode of action determination. The inhibition constant (Ki) was conducted from the secondary plot. Briefly, the 5 concentrations of substrate pNPG (2.5–0.125 mM), the enzyme from Saccharomyces cerevisieae (EC 3.2.1.20) at 1 unit/mL, and 3 concentrations of sample were tested in triplicate.

The test system of assay [2] is alpha-glucosidase enzyme. The assay can be described thus: Alpha-glucosidase inhibitory activity, enzymatic assay with pNPG. It is filed as biochemical, Saccharomyces cerevisiae. The conditions noted are these: for IC50: purchased standards, DMSO co-solvent not more than 5%. How it is done:
All extracts and isolated compounds were examined for their alpha-glucosidase inhibitory activity according to Dej-adisai and Pitakput, 2015 [23]. Briefly, 0.01 M phosphate buffer (50 μL), samples or standard solution (50 μL), and alpha-glucosidase enzyme solution (50 μL) were added to the well plate. The mixture solution was incubated at 37 °C for 2 min. Next, para-nitrophenyl-α-D-glucopyranoside solution (50 μL) was added. The enzymatic inhibition was evaluated from the yellow final product, p-nitrophenol (pNP). The color of the reaction was detected by visible light at 405 nm of SPECTROstar Nano spectrophotometer (BMG Labtech, Ortenberg, Germany). The product absorption was converted to velocity (V) by using Equation (1). Then, the velocity was used to calculated the percentage of inhibition by Equation (2). Furthermore, the ability of sample was performed by IC50 value, which was generated from the calibration curve of percentages of inhibition at five different sample concentrations. Velocity = ∆ Absorbance at 405 nm/∆ Time(1) % Inhibition = [(Vcontrol − Vsample)/Vcontrol] × 100(2)

The subject of assay [3] is alpha-glucosidase enzyme. As to conditions: cited from earlier work.

Converted amounts (≈) assume the structure as drawn. Read-outs that look alike come from different tables or passages of the source. Some results are limits rather than exact numbers.

In the case of `C[C@H]1O[C@H](O[C@H]2[C@H](O)[C@@H](O)[C@@H](O[C@H]3[C@H](O)[C@@H](O)C(O)O[C@@H]3CO)O[C@@H]2CO)[C@H](O)[C@@H](O)[C@@H]1N[C@H]1C=C(CO)[C@@H](O)[C@H](O)[C@H]1O` (stereo partly drawn) [Acarbose, acarbose, reference compound], the “Inhibition Type” value in assay [1] is “Competitive”. Moreover, in assay [2] (alpha-glucosidase), the “% Inhibition at 200 μg/mL” value turned out to be 45.27 ± 4.5% and the “% Inhibition at 400 μg/mL” value is on record as 60.78 ± 3.61%. Further, in assay [2] (alpha-glucosidase, sample at 2 mg/mL), the “% Inhibition at 2 mg/mL” value is given as 76.44 ± 3.06%.
Take `COc1cc(O)c2c(=O)c(OC)c(-c3cc(O)c(OC)c(OC)c3)oc2c1` [Compound 1, myricetin 3, 4′, 5′, 7-tetramethyl ether]: the “% Inhibition at 400 μg/mL” value in assay [2] (alpha-glucosidase) is 12.78 ± 4.89%.
On to `COc1cc(O)c2c(=O)c(OC)c(-c3cc(OC)c(OC)c(OC)c3)oc2c1` [Compound 2, 5-hydroxy-3,7,3′,4′,5′-pentamethoxyflavone], for which the “% Inhibition at 400 μg/mL” value in assay [2] (alpha-glucosidase) is recorded as 8.51 ± 3.79%.
As for `O=c1c(O)c(-c2ccc(O)cc2)oc2cc(O)cc(O)c12` [Compound 3, kaempferol], the Inhibition Type entry in assay [3] (ref [13],[14]) was “mixed-type”; in assay [3] (ref [15]), “non-competitive”; in assay [1] (listed as Kaempferol), “Mixed”; in assay [1] (listed as kaempferol), “mixed-type”. Further, in assay [2] (alpha-glucosidase), the “% Inhibition at 400 μg/mL” value stood at 13.01 ± 2.69%. Further, in assay [2], the IC50 was 585.63 µg/mL (≈ 2050 µM).
Regarding `O=c1c(O)c(-c2ccc(O)cc2)oc2cc(O[C@@H]3O[C@H](CO)[C@@H](O)[C@H](O)[C@H]3O)cc(O)c12` [Compound 4, kaempferol 7-O-β-glucopyranoside], in assay [2] (alpha-glucosidase), the “% Inhibition at 400 μg/mL” value stood at 7.68 ± 0.33%.
As to `COc1cc(O)c2c(=O)c(OC)c(-c3cc(OC)c(OC)c(OC4OC(CO)C(O)C(O)C4O)c3)oc2c1` (stereo not drawn) [Compound 5, 5-hydroxy 3-7-4′-5′-tetramethoxyflavone-3′-O-glucopyranoside], in assay [2] (alpha-glucosidase), the “% Inhibition at 200 μg/mL” value is recorded as 0.84 ± 0.21%.
With `O=c1c(OC2O[C@H](CO)[C@@H](O)[C@H](O)[C@H]2O)c(-c2ccc(O)cc2)oc2cc(O)cc(O)c12` (stereo partly drawn) [Compound 6b, kaempferol 3-O-glucopyranoside], the Inhibition Type result in assay [3] (ref [16]) is recorded as “non-competitive”; in assay [1] (listed as Astragalin), “Mixed”; in assay [1] (listed as astragalin), “mixed-type”. This compound also had an IC50 in assay [2] above 600 µg/mL.

Broadly, the % Inhibition is how much of the control response was suppressed. Low readings indicate little suppression, high ones strong suppression. A word on the IC50: it is the concentration at which inhibition is half-maximal. Low values mean greater potency in that assay, high ones weaker potency in that assay.
